# Where two headings read alike, the source gives them in different places. *1 amine or outer side, *2 acyl side, *3 side chain or, on linkers, in order; H or OH if unused. Where a SMILES comes first, the peptide text is derived from it. Bridges are numbered along the chain shown (N, C = ends). [ ]: non-standard residue; d: D form. The star is where a group is joined. C20 diacid = O=C(O)CCCCCCCCCCCCCCCCCCC(=O)*; γGlu = O=C(O)[C@H](CCC(=O)[*:2])N[*:1]; Hyp = O=C(O)[C@@H]1C[C@@H](O)CN1; NMeI = CC[C@H](C)[C@H](NC)C(=O)O; Aad = N[C@@H](CCCC(=O)O)C(=O)O; Sar = CNCC(=O)O
# Experiments:
# [1] = molecular target: T1, human calcitonin receptor (hCTR2) (Homo sapiens, UniProt P30988); assay: hCTR2 cAMP assay (AlphaScreen) in COS7 cells; type: cell-based
# T1 construct: expressed in transfected cells
# T1 sequence (P30988 25-474): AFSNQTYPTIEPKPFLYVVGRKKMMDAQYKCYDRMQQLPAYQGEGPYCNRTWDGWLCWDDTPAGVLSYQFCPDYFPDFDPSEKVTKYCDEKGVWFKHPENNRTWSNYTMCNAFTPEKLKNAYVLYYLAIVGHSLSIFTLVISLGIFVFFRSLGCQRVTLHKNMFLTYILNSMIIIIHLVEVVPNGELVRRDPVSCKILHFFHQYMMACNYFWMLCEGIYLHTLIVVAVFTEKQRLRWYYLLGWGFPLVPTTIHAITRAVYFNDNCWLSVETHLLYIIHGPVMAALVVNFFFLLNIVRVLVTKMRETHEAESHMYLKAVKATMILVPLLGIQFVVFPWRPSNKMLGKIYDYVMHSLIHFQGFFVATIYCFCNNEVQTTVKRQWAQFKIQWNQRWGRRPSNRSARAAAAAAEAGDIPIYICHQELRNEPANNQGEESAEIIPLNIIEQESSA
# Summary of the method: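 cAMP induction, read by AlphaScreen after lysis, gives EC50 values via 4PL curve fitting. Peptides were applied at rising concentrations for 15 min at 37 °C, with IBMX and 0.1% casein in HEPES-buffered Tyrode pH 7.4, to COS7 cells (no endogenous RAMPs) stably expressing human CTR2.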
# [2] = molecular target: T2, human amylin receptor 3 (hAMYR3), hCTR2 co-expressed with hRAMP3 (Homo sapiens, UniProt O60896+P30988); assay: hAMYR3 cAMP assay (AlphaScreen) in COS7 cells; type: cell-based
# T2 construct: expressed in transfected cells
# T2 sequence (P30988 25-474): T1 sequence (P30988 25-474)
# T2 sequence (O60896 24-148 partner): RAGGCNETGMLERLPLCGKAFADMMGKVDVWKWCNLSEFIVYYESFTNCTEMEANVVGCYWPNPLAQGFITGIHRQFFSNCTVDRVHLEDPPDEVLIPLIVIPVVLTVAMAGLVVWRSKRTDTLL
# Summary of the method: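 EC50 values derive from 4PL curve fits of cAMP (AlphaScreen) in lysates of RAMP-naive COS7 cells stably carrying hCTR2 plus hRAMP3. Peptide dilution series were applied for 15 min at 37 °C in pH 7.4 Tyrode buffer containing 100 µM IBMX and 0.1% casein.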
# [3] = Assessment of physical stability (Thioflavin T fibrillation); type: physicochemical; set-up: key: FND = fibrillation not detected; FD = fibrillation detected; settings: 1 mg/ml, 40° C., ThT; for Fibrillation pH 4.0 (Ac): 50 mM acetate buffer pH 4.0, 96 hours; for Fibrillation pH 7.0 (His): 50 mM histidine buffer pH 7.0, 96 hours; for Fibrillation pH 7.0 (Phos.): 50 mM phosphate buffer pH 7.0, 96 hours
# Summary of the method: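 Fibrillation lag-time, in hours, taken where regressions of the initial stable phase and the growth phase intersect. ThT (40 μM) fluorescence monitored at 40 °C for 96 h, 10-min reads each preceded by 300 s mixing. Peptide at 1 mg/ml in 50 mM buffers: phosphate or histidine pH 7.0, acetate pH 4.0.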
# [4] = Assessment of chemical stability (RP-HPLC normalized purity); type: physicochemical; settings: for Normalized purity pH 4 (Table 5): pH 4, repeat of Example 6 for pairs with/without Asn-Asn at 21-22; for Normalized purity pH 6 (Table 5): pH 6, repeat of Example 6 for pairs with/without Asn-Asn at 21-22; for Normalized purity pH 7.5 (Table 5): pH 7.5, repeat of Example 6 for pairs with/without Asn-Asn at 21-22; for Normalized purity pH 9 (Table 5): pH 9, repeat of Example 6 for pairs with/without Asn-Asn at 21-22
# Summary of the method: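 Purity after 7 days at 40° C is expressed relative to T=0 (set to 100) for each pH. Samples at 0.2 mg/ml, pH 4, 6, 7.5 or 9, analyzed by RP-HPLC with UV 220 nm on C8 (ammonium formate) or C18 (TFA) gradients.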
# [5] = cAMP induction, COS7 cells expressing hCTR2, Table 1, read-out: hCTR2 EC50
# [6] = cAMP induction, COS7 cells expressing hAMYR3, Table 1, read-out: hAMYR3 EC50
SMILES,"EC50 [1, 5] [nM]","EC50 [2, 6] [nM]",Fibrillation pH 4.0 (Ac) [3],Fibrillation pH 7.0 (His) [3],Fibrillation pH 7.0 (Phos.) [3],EC50 [1] [nM],EC50 [2] [nM],Normalized purity pH 4 (Table 5) [4],Normalized purity pH 6 (Table 5) [4],Normalized purity pH 7.5 (Table 5) [4],Normalized purity pH 9 (Table 5) [4]
"CC[C@H](C)[C@@H](C(=O)N[C@@H](CC(C)C)C(=O)N[C@@H](CO)C(=O)N[C@@H](CO)C(=O)N[C@H](C(=O)N[C@@H](CCC(=O)O)C(=O)N[C@H](C(=O)NCC(=O)N[C@@H](CO)C(=O)N[C@@H](CCC(=O)O)C(=O)N[C@H](C(=O)N1CCC[C@H]1C(N)=O)[C@@H](C)O)C(C)C)[C@@H](C)O)N(C)C(=O)[C@H](C)NC(=O)CN(C)C(=O)[C@H](Cc1ccccc1)NC(=O)[C@H](CO)NC(=O)[C@H](CO)NC(=O)[C@H](CCCNC(=N)N)NC(=O)[C@H](Cc1c[nH]cn1)NC(=O)[C@H](CC(C)C)NC(=O)[C@H](Cc1ccccc1)NC(=O)[C@H](CC(=O)O)NC(=O)[C@H](C)NC(=O)[C@H](CC(C)C)NC(=O)[C@H](CCCNC(=N)N)NC(=O)[C@H](CCC(N)=O)NC(=O)[C@@H](NC(=O)[C@H](C)NC(=O)[C@@H]1CSSC[C@H](NC(=O)[C@H](CCCNC(=N)N)NC(=O)CC[C@H](NC(=O)CCCCCCCCCCCCCCCCCCC(=O)O)C(=O)O)C(=O)N[C@@H](CC(N)=O)C(=O)N[C@@H]([C@@H](C)O)C(=O)N[C@@H](C)C(=O)N[C@@H]([C@@H](C)O)C(=O)N1)[C@@H](C)O [Compound 1, [19CD]-isoGlu-R-C( )-NTAT-C( )-ATQRLADFLHRSSF-Gly(Me)-A-Ile(Me)-LSSTEVGSETP-NH2] ({C20 diacid-γGlu}-RCNTATCATQRLADFLHRSSF[Sar]A[NMeI]LSSTEVGSETP-NH2; disulfide 2-7)",0.079,0.23,FND,FND,FND,,,,,,
"CC[C@H](C)[C@@H](C(=O)N[C@@H](CC(C)C)C(=O)N[C@@H](CO)C(=O)N[C@@H](CO)C(=O)N[C@H](C(=O)N[C@@H](CCC(=O)O)C(=O)N[C@H](C(=O)NCC(=O)N[C@@H](CO)C(=O)N[C@@H](CCC(=O)O)C(=O)N[C@H](C(=O)N1CCC[C@H]1C(N)=O)[C@@H](C)O)C(C)C)[C@@H](C)O)N(C)C(=O)[C@H](C)NC(=O)CN(C)C(=O)[C@H](Cc1ccccc1)NC(=O)[C@@H](NC(=O)[C@H](CO)NC(=O)[C@H](CCCNC(=N)N)NC(=O)[C@H](Cc1c[nH]cn1)NC(=O)[C@H](CC(C)C)NC(=O)[C@H](Cc1ccccc1)NC(=O)[C@H](Cc1c[nH]cn1)NC(=O)[C@H](C)NC(=O)[C@H](CC(C)C)NC(=O)[C@H](CCCNC(=N)N)NC(=O)[C@H](CCC(N)=O)NC(=O)[C@@H](NC(=O)[C@H](C)NC(=O)[C@@H]1CSSC[C@H](NC(=O)[C@H](CCCNC(=N)N)NC(=O)CC[C@H](NC(=O)CCCCCCCCCCCCCCCCCCC(=O)O)C(=O)O)C(=O)N[C@@H](CC(N)=O)C(=O)N[C@@H]([C@@H](C)O)C(=O)N[C@@H](C)C(=O)N[C@@H]([C@@H](C)O)C(=O)N1)[C@@H](C)O)C(C)C [Compound 20, [19CD]-isoGlu-R-C( )-NTAT-C( )-ATQRLAHFLHRSVF-Gly(Me)-A-Ile(Me)-LSSTEVGSETP-NH2] ({C20 diacid-γGlu}-RCNTATCATQRLAHFLHRSVF[Sar]A[NMeI]LSSTEVGSETP-NH2; disulfide 2-7)",0.19,0.33,FND,FD,FND,,,,,,
"CC[C@H](C)[C@@H](C(=O)N[C@@H](CC(C)C)C(=O)N[C@@H](CO)C(=O)N[C@@H](CO)C(=O)N[C@H](C(=O)N[C@@H](CCC(=O)O)C(=O)N[C@H](C(=O)NCC(=O)N[C@@H](CO)C(=O)N[C@@H](CC(N)=O)C(=O)N[C@H](C(=O)N1C[C@H](O)C[C@H]1C(N)=O)[C@@H](C)O)C(C)C)[C@@H](C)O)N(C)C(=O)[C@H](C)NC(=O)CN(C)C(=O)[C@H](Cc1ccccc1)NC(=O)[C@H](CC(N)=O)NC(=O)[C@H](CC(N)=O)NC(=O)[C@H](CO)NC(=O)[C@H](CO)NC(=O)[C@H](CCCNC(=N)N)NC(=O)[C@H](CCC(N)=O)NC(=O)[C@H](CC(C)C)NC(=O)[C@H](Cc1ccccc1)NC(=O)[C@H](Cc1c[nH]cn1)NC(=O)[C@H](C)NC(=O)[C@H](CC(C)C)NC(=O)[C@H](CCCNC(=N)N)NC(=O)[C@H](CCC(=O)O)NC(=O)[C@@H](NC(=O)[C@H](C)NC(=O)[C@@H]1CSSC[C@H](NC(=O)[C@H](CCCNC(=N)N)NC(=O)CC[C@H](NC(=O)CCCCCCCCCCCCCCCCCCC(=O)O)C(=O)O)C(=O)N[C@@H](CCC(N)=O)C(=O)N[C@@H]([C@@H](C)O)C(=O)N[C@@H](C)C(=O)N[C@@H]([C@@H](C)O)C(=O)N1)[C@@H](C)O [Compound 99, [19CD]-isoGlu-R-C( )-QTAT-C( )-ATERLAHFLQRSSNNF-Gly(Me)-A-Ile(Me)-LSSTEVGSNT-Hyp-NH2, reference compound] ({C20 diacid-γGlu}-RCQTATCATERLAHFLQRSSNNF[Sar]A[NMeI]LSSTEVGSNT[Hyp]-NH2; disulfide 2-7)",,,,,,3.8,0.59,A (A = >90%),A (A = >90%),B (B = 70-90%),B (B = 70-90%)
"CC[C@H](C)[C@@H](C(=O)N[C@@H](CC(C)C)C(=O)N[C@@H](CO)C(=O)N[C@@H](CO)C(=O)N[C@H](C(=O)N[C@@H](CCC(=O)O)C(=O)N[C@H](C(=O)NCC(=O)N[C@@H](CO)C(=O)N[C@@H](CC(N)=O)C(=O)N[C@H](C(=O)N1C[C@H](O)C[C@H]1C(N)=O)[C@@H](C)O)C(C)C)[C@@H](C)O)N(C)C(=O)[C@H](C)NC(=O)CN(C)C(=O)[C@H](Cc1ccccc1)NC(=O)[C@H](CC(N)=O)NC(=O)[C@H](CC(N)=O)NC(=O)[C@H](CO)NC(=O)[C@H](CO)NC(=O)[C@H](CCCNC(=N)N)NC(=O)[C@H](CCC(N)=O)NC(=O)[C@H](CC(C)C)NC(=O)[C@H](Cc1ccccc1)NC(=O)[C@H](CCCC(=O)O)NC(=O)[C@H](C)NC(=O)[C@H](CC(C)C)NC(=O)[C@H](CCCNC(=N)N)NC(=O)[C@H](CC(=O)O)NC(=O)[C@@H](NC(=O)[C@H](C)NC(=O)[C@@H]1CSSC[C@H](NC(=O)[C@H](CCCNC(=N)N)NC(=O)CC[C@H](NC(=O)CCCCCCCCCCCCCCCCCCC(=O)O)C(=O)O)C(=O)N[C@@H](CCC(N)=O)C(=O)N[C@@H]([C@@H](C)O)C(=O)N[C@@H](C)C(=O)N[C@@H]([C@@H](C)O)C(=O)N1)[C@@H](C)O [Compound 100, [19CD]-isoGlu-R-C( )-QTAT-C( )-ATDRLA-Aad-FLQRSSNNF-Gly(Me)-A-Ile(Me)-LSSTEVGSNT-Hyp-NH2, reference compound] ({C20 diacid-γGlu}-RCQTATCATDRLA[Aad]FLQRSSNNF[Sar]A[NMeI]LSSTEVGSNT[Hyp]-NH2; disulfide 2-7)",,,,,,2.2,0.53,A (A = >90%),A (A = >90%),A (A = >90%),B (B = 70-90%)
